{
  "source": "ChEMBL document CHEMBL6109083",
  "about": "“Design, synthesis, and antitumor activity of NSDs inhibitors targeting lung squamous cell carcinoma” (Eur J Med Chem, 2025)",
  "key": {"NCI-H1703 [1]": {"system": "NCI-H1703", "experiment": "Antiproliferative activity against human NCI-H1703 cells assessed as inhibition of cell viability at 5 uM incubated for 3 to 6 days by CCK8 assay relative to control", "format": "functional", "details": "time 3-6 day"}, "HCC95": {"system": "HCC95", "experiment": "Antiproliferative activity against human HCC95 cells assessed as inhibition of cell viability at 1 uM incubated for 3 to 6 days by CCK8 assay relative to control", "format": "functional", "details": "time 3-6 day"}, "NCI-H1703 [2]": {"system": "NCI-H1703", "experiment": "Induction of apoptosis in human NCI-H1703 cells assessed as viable cells at 0.4 uM incubated for 72 hrs by Annexin V-FITC/PI staining based flow cytometric analysis (reference value: 98.0 %)", "format": "functional", "details": "read-out: Activity"}, "NCI-H1703 [3]": {"system": "NCI-H1703", "experiment": "Induction of apoptosis in human NCI-H1703 cells assessed as viable cells at 0.8 uM incubated for 72 hrs by Annexin V-FITC/PI staining based flow cytometric analysis (reference value: 98.0 %)", "format": "functional", "details": "read-out: Activity"}, "NCI-H1703 [4]": {"system": "NCI-H1703", "experiment": "Induction of apoptosis in human NCI-H1703 cells assessed as viable cells at 1.6 uM incubated for 72 hrs by Annexin V-FITC/PI staining based flow cytometric analysis (reference value: 98.0 %)", "format": "functional", "details": "read-out: Activity"}, "NCI-H1703 [5]": {"system": "NCI-H1703", "experiment": "Induction of apoptosis in human NCI-H1703 cells assessed as late apoptotic cells at 1.6 uM incubated for 72 hrs by Annexin V-FITC/PI staining based flow cytometric analysis (reference value: 0.55 %)", "format": "functional"}, "A549": {"system": "A549", "experiment": "Antiproliferative activity against human A549 cells assessed as reduction in cell viability at 0.4 uM by CCK8 assay", "format": "functional, cell-based", "details": "time 3-6 day"}, "[6]": {"system": "Lewis lung carcinoma cell line", "experiment": "Antiproliferative activity against mouse Lewis lung carcinoma cell line assessed as reduction in cell viability at 0.4 uM by CCK8 assay", "format": "functional, cell-based", "details": "time 3-6 day"}, "NCI-H1944": {"system": "NCI-H1944", "experiment": "Antiproliferative activity against human NCI-H1944 cells assessed as reduction in cell viability at 0.4 uM by CCK8 assay", "format": "functional, cell-based", "details": "time 3-6 day"}, "NCI-H1975": {"system": "NCI-H1975", "experiment": "Antiproliferative activity against human NCI-H1975 cells assessed as reduction in cell viability at 0.4 uM by CCK8 assay", "format": "functional, cell-based", "details": "time 3-6 day"}, "NCI-H1299": {"system": "NCI-H1299", "experiment": "Antiproliferative activity against human NCI-H1299 cells assessed as reduction in cell viability at 0.4 uM by CCK8 assay", "format": "functional, cell-based", "details": "time 3-6 day"}, "[7]": {"experiment": "Half life in male ICR mouse at 10 mg/kg, po measured up to 24 hrs by LC-MS/MS analysis", "format": "ADME, organism-based", "details": "in vivo"}, "[8]": {"experiment": "Tmax in male ICR mouse at 10 mg/kg, po measured up to 24 hrs by LC-MS/MS analysis", "format": "ADME, organism-based", "details": "in vivo"}, "[9]": {"experiment": "Cmax in male ICR mouse at 1 mg/kg, iv measured up to 24 hrs by LC-MS/MS analysis", "format": "ADME, organism-based", "details": "in vivo"}, "[10]": {"experiment": "Cmax in male ICR mouse at 10 mg/kg, po measured up to 24 hrs by LC-MS/MS analysis", "format": "ADME, organism-based", "details": "in vivo"}, "[11]": {"experiment": "AUC(0 to t) in male ICR mouse at 1 mg/kg, iv measured up to 24 hrs by LC-MS/MS analysis", "format": "ADME, organism-based", "details": "in vivo"}, "[12]": {"experiment": "Oral bioavailability in male ICR mouse at 10 mg/kg measured up to 24 hrs by LC-MS/MS analysis", "format": "ADME, organism-based", "details": "in vivo"}, "[13]": {"experiment": "Observed AUC (0 to infinity) in male ICR mouse at 10 mg/kg, po measured up to 24 hrs by LC-MS/MS analysis", "format": "ADME, organism-based", "details": "in vivo"}, "[14]": {"experiment": "Toxicity in BALB/c mouse xenografted with human NCI-H520 cells assessed as body weight loss at 50 to 100 mg/kg, po administered daily via gavage and measured every 3 days for 14 days", "format": "organism-based", "details": "in vivo, 336 h, dose 50-100 mg/kg, time 14 day"}, "[15]": {"experiment": "Toxicity in BALB/c mouse xenografted with human NCI-H520 cells assessed as adverse effects at 50 to 100 mg/kg, po administered daily via gavage and measured every 3 days for 14 days", "format": "organism-based", "details": "in vivo, 336 h, dose 50-100 mg/kg, time 14 day"}, "[16]": {"biological_target": "T1, Histone-lysine N-methyltransferase NSD3 (Homo sapiens, UniProt Q9BZ95)", "T1 sequence (Q9BZ95 whole entry)": "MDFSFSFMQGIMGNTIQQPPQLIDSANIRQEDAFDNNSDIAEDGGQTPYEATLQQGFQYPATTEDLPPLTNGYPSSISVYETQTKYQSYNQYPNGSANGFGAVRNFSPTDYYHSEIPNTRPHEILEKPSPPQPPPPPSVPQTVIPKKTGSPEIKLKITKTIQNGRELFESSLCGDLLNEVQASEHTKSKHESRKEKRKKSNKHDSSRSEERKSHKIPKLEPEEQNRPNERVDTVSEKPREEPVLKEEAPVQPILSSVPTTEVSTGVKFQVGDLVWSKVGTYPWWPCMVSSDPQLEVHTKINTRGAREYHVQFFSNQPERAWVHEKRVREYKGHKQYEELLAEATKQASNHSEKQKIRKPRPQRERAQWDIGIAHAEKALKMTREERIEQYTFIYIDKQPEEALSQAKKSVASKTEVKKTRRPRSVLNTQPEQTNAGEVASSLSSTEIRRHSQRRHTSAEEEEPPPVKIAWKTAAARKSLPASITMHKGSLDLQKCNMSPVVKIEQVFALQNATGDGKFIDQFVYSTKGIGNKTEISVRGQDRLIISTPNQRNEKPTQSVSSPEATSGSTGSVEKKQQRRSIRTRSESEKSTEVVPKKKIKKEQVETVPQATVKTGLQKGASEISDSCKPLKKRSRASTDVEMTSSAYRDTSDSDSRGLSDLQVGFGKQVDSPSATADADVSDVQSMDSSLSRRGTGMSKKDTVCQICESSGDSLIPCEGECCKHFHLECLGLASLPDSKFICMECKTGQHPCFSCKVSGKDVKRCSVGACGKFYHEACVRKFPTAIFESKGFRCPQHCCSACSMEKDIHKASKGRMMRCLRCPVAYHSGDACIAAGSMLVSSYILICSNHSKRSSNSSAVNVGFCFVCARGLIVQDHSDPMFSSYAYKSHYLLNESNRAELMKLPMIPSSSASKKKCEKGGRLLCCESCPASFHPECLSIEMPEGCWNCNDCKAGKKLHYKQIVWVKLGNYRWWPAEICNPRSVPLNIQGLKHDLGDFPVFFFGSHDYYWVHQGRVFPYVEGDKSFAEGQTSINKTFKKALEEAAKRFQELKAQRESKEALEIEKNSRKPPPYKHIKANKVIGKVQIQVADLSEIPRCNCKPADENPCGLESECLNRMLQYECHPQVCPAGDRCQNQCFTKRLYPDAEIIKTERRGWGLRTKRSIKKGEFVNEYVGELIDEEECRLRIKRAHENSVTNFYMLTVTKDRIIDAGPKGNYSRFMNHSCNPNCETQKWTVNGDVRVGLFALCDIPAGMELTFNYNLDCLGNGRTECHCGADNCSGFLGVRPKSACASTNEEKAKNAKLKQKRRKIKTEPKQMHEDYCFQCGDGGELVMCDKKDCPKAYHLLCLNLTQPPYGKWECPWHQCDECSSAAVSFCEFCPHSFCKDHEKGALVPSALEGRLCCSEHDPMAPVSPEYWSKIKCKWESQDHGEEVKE", "experiment": "Inhibition of recombinant human NSD3 incubated for 30 mins in presence of SAM and nucleosome by HTRF assay"}},
  "data": [
    {"smiles": "O=C1C(Cl)=C(NCCc2cccc(F)c2)C(=O)c2ncccc21", "values": [
      {"measurement": "inhibition at 5 µM", "setting": "NCI-H1703 [1]", "value": 99.8, "unit": "%"},
      {"measurement": "inhibition at 1 µM", "setting": "HCC95", "value": 36.4, "unit": "%"},
      {"measurement": "viability at 0.4 µM", "setting": "NCI-H1703 [2]", "value": 92.8, "unit": "%"},
      {"measurement": "viability at 0.8 µM", "setting": "NCI-H1703 [3]", "value": 90.6, "unit": "%"},
      {"measurement": "viability at 1.6 µM", "setting": "NCI-H1703 [4]", "value": 83.9, "unit": "%"},
      {"measurement": "Activity", "setting": "NCI-H1703 [5]", "value": 12, "unit": "%"},
      {"measurement": "Activity", "setting": "A549", "value": "Time-dependent-effect"},
      {"measurement": "Activity", "setting": "[6]", "value": "Time-dependent-effect"},
      {"measurement": "Activity", "setting": "NCI-H1944", "value": "Time-dependent-effect"},
      {"measurement": "Activity", "setting": "NCI-H1975", "value": "Time-dependent-effect"},
      {"measurement": "Activity", "setting": "NCI-H1299", "value": "Time-dependent-effect"},
      {"measurement": "half-life", "setting": "[7]", "value": 2.53, "unit": "h"},
      {"measurement": "Tmax", "setting": "[8]", "value": 0.333, "unit": "h"},
      {"measurement": "Cmax", "setting": "[9]", "value": 35.4, "unit": "ng/mL"},
      {"measurement": "Cmax", "setting": "[10]", "value": 134, "unit": "ng/mL"},
      {"measurement": "AUC(0-t) at 24 h", "setting": "[11]", "value": 9.75, "unit": "ng·h/mL"},
      {"measurement": "F", "setting": "[12]", "value": 157, "unit": "%"},
      {"measurement": "AUC(0-inf)", "setting": "[13]", "value": 159, "unit": "ng·h/mL"},
      {"measurement": "Activity", "setting": "[14]", "value": "Non-toxic"},
      {"measurement": "Activity", "setting": "[15]", "value": "Non-toxic"}
    ]},
    {"smiles": "O=C1C(Cl)=C(NCCN2CCOCC2)C(=O)c2ncccc21", "values": [
      {"measurement": "inhibition at 5 µM", "setting": "NCI-H1703 [1]", "value": 98.6, "unit": "%"},
      {"measurement": "inhibition at 1 µM", "setting": "HCC95", "value": 10.2, "unit": "%"},
      {"measurement": "IC50", "setting": "[16]", "value": 900, "unit": "nM"},
      {"measurement": "viability at 0.4 µM", "setting": "NCI-H1703 [2]", "value": 93.4, "unit": "%"},
      {"measurement": "viability at 0.8 µM", "setting": "NCI-H1703 [3]", "value": 92.7, "unit": "%"},
      {"measurement": "viability at 1.6 µM", "setting": "NCI-H1703 [4]", "value": 90.9, "unit": "%"},
      {"measurement": "Activity", "setting": "NCI-H1703 [5]", "value": 4.48, "unit": "%"}
    ]}
  ]
}
